{
  "source": "patent US20260053811A1",
  "about": "“METHODS OF TREATING HYPERTENSION IN OBESE SUBJECTS” (Mineralys Therapeutics, Inc., priority 2022, published 2026)",
  "tested_on": "hypertensive subjects",
  "assay": "Seated automated office blood pressure (AOBP) in randomized, placebo-controlled, dose-ranging study",
  "format": "in vivo, human",
  "settings": "for Placebo-adjusted reduction in AOBP SBP, exploratory MMRM analysis by BMI: data not shown; for Mean (SD) Automated Office-Measured Systolic Blood Pressure at Wk 8 / Mean (SD) Change from Baseline at Week 8 in Automated Office-Measured Systolic Blood Pressure / Mean (SD) Automated Office-Measured Diastolic Blood Pressure at Wk 8 / Mean (SD) Change from Baseline at Week 8 in Automated Office-Measured Diastolic Blood Pressure: Part 1, 12.5 mg BID",
  "experimental": "A randomized, double-blinded, placebo-controlled, dose-ranging, multicenter study was conducted to evaluate the effect of orally administered Compound A HBr on blood pressure for the treatment of hypertension in male and female subjects ≥18 years of age.\nThe study consists of two parts. For enrollment into Part 1 of the study, a subject's value of plasma renin activity (PRA) must be ≤1 ng/mL/h based on morning measurement. If the value of PRA >1 ng/mL/h based on morning measurement, then subjects may be eligible to enter Part 2 of the study.\nFor Part 1, 163 enrolled subjects ≥18 years of age were randomized into 6 equal treatment groups (1:1:1:1:1:1) to 12.5 mg BID, 25 mg BID, 12.5 mg QD, 50 mg QD, 100 mg QD, or placebo. After a review of interim clinical data, the 2 lowest dose levels (12.5 mg QD and 12.5 mg BID) were stopped for future randomization due to a lack of consistent meaningful reduction of blood pressure, but the patients randomized to that point remained in the study through completion. Thus, after the review of interim clinical data, subjects were randomized into 4 equal treatment groups (1:1:1:1) to 25 mg BID, 50 mg QD, 100 mg QD, or placebo.\nFor Part 2, 36 enrolled subjects ≥18 years of age were randomized (5:1) to either 100 mg QD Compound A HBr or placebo such that the Compound A HBr treatment group consisted of approximately 30 subjects and the placebo treatment group will consist of approximately 6 subjects.\nSubjects orally administered the assigned study drug (Compound A HBr or placebo) according to the assigned dosing regimen for 8 weeks beginning on Study Day 1. All subjects in Part 1 (regardless of dosing group) received BID dosing to preserve the integrity of the blind; active drug is administered as the morning dose for all QD dose groups. Subjects returned to the research facility or were seen by the clinical investigator or approved home health care professional at the end of Study Weeks 1, 2, 3, 4, 5, 6, 7, and 8 (±2 days) for protocol-defined efficacy and safety assessments and procedures, assessment of adverse events (AEs), and confirmation of compliance with study drug usage. Subjects also completed a telephone visit and blood pressure (BP) check at home approximately 3 days post last dose of study drug. Subjects attended up to 14 full clinic visits, including a pre-Screening visit, a Screening/start of Placebo Run-in visit, a second visit during Placebo Run-in, a clinic visit to initiate the ABPM procedure, a Randomization visit, 8 weekly visits during double-blind treatment, and an end-of-study visit scheduled 4 weeks after the last study treatment for final efficacy and safety assessments.\nAn automated oscillometric sphygmomanometer device was used to measure the subjects' systolic and diastolic blood pressure in office after approximately 5 minutes of rest in the seated position.\nThe primary endpoint is the change in office-measured (mean of last 2 of 5 unattended measurements using an automated oscillometric sphygmomanometer device after approximately 5 minutes of rest in the seated position) systolic blood pressure (SBP) from baseline to the end of Study Week 8.\nSecondary endpoints of this study were: • (a) Change in 24-hour ambulatory blood pressure monitoring (ABPM) parameters (systolic and diastolic) from baseline to the end of Study Week 7. • (b) Change in office-measured SBP from baseline to the end of Study Weeks 1, 2, 3, 4, 5, 6, and 7. • (c) Change in office-measured diastolic blood pressure (DBP) from baseline to the end of Study Weeks 1, 2, 3, 4, 5, 6, 7, and 8. • (d) Proportion of subjects who achieve office-measured BP of ≤130/80 mm Hg by the end of Study Week 8.",
  "data": [
    {"smiles": "CC(=O)N[C@H]1CC[C@H](NC(=O)CN2CCN(c3nncc(-c4ccc(C)cc4)n3)CC2)CC1", "note": "[Compound A HBr]", "values": [
      {"measurement": "Subjects with seated AOBP SBP/DBP ≤130/80 mmHg: No", "setting": "100 mg QD, Week 8, Part 2, FAS", "result": "14 (45.2) n (%)"},
      {"measurement": "Subjects with seated AOBP SBP/DBP ≤130/80 mmHg: Yes", "setting": "100 mg QD, Week 8, Part 2, FAS", "result": "17 (54.8) n (%)"},
      {"measurement": "Placebo-adjusted reduction in AOBP SBP, exploratory MMRM analysis by BMI", "setting": "Part 1 50 mg QD cohort", "result": "−16.7", "unit": "mmHg"},
      {"measurement": "Placebo-adjusted reduction in AOBP SBP, exploratory MMRM analysis by BMI", "setting": "Part 1 100 mg QD cohort", "result": "−12.3", "unit": "mmHg"},
      {"measurement": "Mean (SD) Automated Office-Measured Systolic Blood Pressure at Wk 8", "setting": "ACEi/ARB No", "result": "131.50 (16.22) mmHg"},
      {"measurement": "Mean (SD) Change from Baseline at Week 8 in Automated Office-Measured Systolic Blood Pressure", "setting": "ACEi/ARB No", "result": "−18.75 (21.77) mmHg"},
      {"measurement": "Mean (SD) Automated Office-Measured Systolic Blood Pressure at Wk 8", "setting": "ACEi/ARB Yes", "result": "132.00 (12.59) mmHg"},
      {"measurement": "Mean (SD) Change from Baseline at Week 8 in Automated Office-Measured Systolic Blood Pressure", "setting": "ACEi/ARB Yes", "result": "−12.47 (17.09) mmHg"},
      {"measurement": "Mean (SD) Automated Office-Measured Diastolic Blood Pressure at Wk 8", "setting": "ACEi/ARBs No", "result": "76.25 (12.37) mmHg"},
      {"measurement": "Mean (SD) Change from Baseline at Week 8 in Automated Office-Measured Diastolic Blood Pressure", "setting": "ACEi/ARBs No", "result": "−4.00 (8.79) mmHg"},
      {"measurement": "Mean (SD) Automated Office-Measured Diastolic Blood Pressure at Wk 8", "setting": "ACEi/ARBs Yes", "result": "74.93 (9.86) mmHg"},
      {"measurement": "Mean (SD) Change from Baseline at Week 8 in Automated Office-Measured Diastolic Blood Pressure", "setting": "ACEi/ARBs Yes", "result": "−6.33 (9.02) mmHg"},
      {"measurement": "Mean (SD) Automated Office-Measured Diastolic Blood Pressure at Wk 8", "setting": "AHTs 2", "result": "79.67 (11.78) mmHg"},
      {"measurement": "Mean (SD) Automated Office-Measured Systolic Blood Pressure at Wk 8", "setting": "AHTs 2", "result": "136.33 (11.76) mmHg"},
      {"measurement": "Mean (SD) Change from Baseline at Week 8 in Automated Office-Measured Diastolic Blood Pressure", "setting": "AHTs 2", "result": "−5.25 (7.78) mmHg"},
      {"measurement": "Mean (SD) Change from Baseline at Week 8 in Automated Office-Measured Systolic Blood Pressure", "setting": "AHTs 2", "result": "−8.33 (13.28) mmHg"},
      {"measurement": "Mean (SD) Automated Office-Measured Diastolic Blood Pressure at Wk 8", "setting": "AHTs ≥3", "result": "73.15 (8.93) mmHg"},
      {"measurement": "Mean (SD) Automated Office-Measured Systolic Blood Pressure at Wk 8", "setting": "AHTs ≥3", "result": "129.85 (13.37) mmHg"},
      {"measurement": "Mean (SD) Change from Baseline at Week 8 in Automated Office-Measured Diastolic Blood Pressure", "setting": "AHTs ≥3", "result": "−6.12 (9.49) mmHg"},
      {"measurement": "Mean (SD) Change from Baseline at Week 8 in Automated Office-Measured Systolic Blood Pressure", "setting": "AHTs ≥3", "result": "−16.31 (19.35) mmHg"},
      {"measurement": "Mean (SD) Automated Office-Measured Diastolic Blood Pressure at Wk 8", "setting": "Age 65-79 yr", "result": "76.18 (7.87) mmHg"},
      {"measurement": "Mean (SD) Automated Office-Measured Systolic Blood Pressure at Wk 8", "setting": "Age 65-79 yr", "result": "135.73 (11.26) mmHg"},
      {"measurement": "Mean (SD) Change from Baseline at Week 8 in Automated Office-Measured Diastolic Blood Pressure", "setting": "Age 65-79 yr", "result": "−3.18 (7.91) mmHg"},
      {"measurement": "Mean (SD) Change from Baseline at Week 8 in Automated Office-Measured Systolic Blood Pressure", "setting": "Age 65-79 yr", "result": "−12.77 (19.08) mmHg"},
      {"measurement": "Mean (SD) Automated Office-Measured Diastolic Blood Pressure at Wk 8", "setting": "Age <65 yr", "result": "79.17 (9.58) mmHg"},
      {"measurement": "Mean (SD) Automated Office-Measured Systolic Blood Pressure at Wk 8", "setting": "Age <65 yr", "result": "132.17 (11.13) mmHg"},
      {"measurement": "Mean (SD) Change from Baseline at Week 8 in Automated Office-Measured Diastolic Blood Pressure", "setting": "Age <65 yr", "result": "−5.67 (5.02) mmHg"},
      {"measurement": "Mean (SD) Change from Baseline at Week 8 in Automated Office-Measured Systolic Blood Pressure", "setting": "Age <65 yr", "result": "−6.92 (7.84) mmHg"},
      {"measurement": "Mean (SD) Automated Office-Measured Diastolic Blood Pressure at Wk 8", "setting": "Age ≥80 yr", "result": "58.00 (7.07) mmHg"},
      {"measurement": "Mean (SD) Automated Office-Measured Systolic Blood Pressure at Wk 8", "setting": "Age ≥80 yr", "result": "110.00 (1.41) mmHg"},
      {"measurement": "Mean (SD) Change from Baseline at Week 8 in Automated Office-Measured Diastolic Blood Pressure", "setting": "Age ≥80 yr", "result": "−21.00 (9.90) mmHg"},
      {"measurement": "Mean (SD) Change from Baseline at Week 8 in Automated Office-Measured Systolic Blood Pressure", "setting": "Age ≥80 yr", "result": "−40.00 (4.24) mmHg"},
      {"measurement": "Mean (SD) Automated Office-Measured Diastolic Blood Pressure at Wk 8", "setting": "BMI 25−30 kg/m^2", "result": "71.75 (9.07) mmHg"},
      {"measurement": "Mean (SD) Change from Baseline at Week 8 in Automated Office-Measured Diastolic Blood Pressure", "setting": "BMI 25−30 kg/m^2", "result": "−8.00 (7.56) mmHg"},
      {"measurement": "Mean (SD) Automated Office-Measured Diastolic Blood Pressure at Wk 8", "setting": "BMI <25 kg/m^2", "result": "92.00 (NE) mmHg"},
      {"measurement": "Mean (SD) Change from Baseline at Week 8 in Automated Office-Measured Diastolic Blood Pressure", "setting": "BMI <25 kg/m^2", "result": "6.00 (NE) mmHg"},
      {"measurement": "Mean (SD) Automated Office-Measured Diastolic Blood Pressure at Wk 8", "setting": "BMI >30 kg/m^2", "result": "75.00 (9.80) mmHg"},
      {"measurement": "Mean (SD) Change from Baseline at Week 8 in Automated Office-Measured Diastolic Blood Pressure", "setting": "BMI >30 kg/m^2", "result": "−6.07 (9.01) mmHg"},
      {"measurement": "Mean (SD) Automated Office-Measured Systolic Blood Pressure at Wk 8", "setting": "BMI at baseline 25-30 kg/m^2", "result": "125.50 (14.89) mmHg"},
      {"measurement": "Mean (SD) Change from Baseline at Week 8 in Automated Office-Measured Systolic Blood Pressure", "setting": "BMI at baseline 25-30 kg/m^2", "result": "−23.88 (24.55) mmHg"},
      {"measurement": "Mean (SD) Automated Office-Measured Systolic Blood Pressure at Wk 8", "setting": "BMI at baseline <25 kg/m^2", "result": "150.00 (NE) mmHg"},
      {"measurement": "Mean (SD) Change from Baseline at Week 8 in Automated Office-Measured Systolic Blood Pressure", "setting": "BMI at baseline <25 kg/m^2", "result": "2.50 (NE) mmHg"},
      {"measurement": "Mean (SD) Automated Office-Measured Systolic Blood Pressure at Wk 8", "setting": "BMI at baseline >30 kg/m^2", "result": "132.43 (11.93) mmHg"},
      {"measurement": "Mean (SD) Change from Baseline at Week 8 in Automated Office-Measured Systolic Blood Pressure", "setting": "BMI at baseline >30 kg/m^2", "result": "−12.07 (15.48) mmHg"},
      {"measurement": "Mean (SD) Automated Office-Measured Diastolic Blood Pressure at Wk 8", "setting": "Race Black or AA", "result": "79.14 (8.49) mmHg"},
      {"measurement": "Mean (SD) Automated Office-Measured Systolic Blood Pressure at Wk 8", "setting": "Race Black or AA", "result": "137.71 (13.50) mmHg"}
    ]}
  ]
}
